In US20210024756A1, “STABILIZED COPPER GLASS” (CORNING INCORPORATED, priority 2018, published 2021):

Tested on: E. coli
Test: Minimum Inhibition Concentration, bacterial recovery grading
Type: cell-based
Design: key: −: No bacterial recovery.; +: Trace of contamination (<10colonies).; ++: Light contamination (>100 colonies).; +++: Heavy contamination (continuous smear of growth)
Conditions: E. coli OD 0.441, 2.68 × 10^8 cell/mL

## thiourea [Thiourea Ctrl]
0.0001 ppm (mg/L)
  Bacterial growth (Minimum Inhibition Concentration): +++
0.001 ppm (mg/L)
  Bacterial growth (Minimum Inhibition Concentration): +++
0.01 ppm (mg/L)
  Bacterial growth (Minimum Inhibition Concentration): +++
0.1 ppm (mg/L)
  Bacterial growth (Minimum Inhibition Concentration): +++
1 ppm (mg/L)
  Bacterial growth (Minimum Inhibition Concentration): +++
10 ppm (mg/L)
  Bacterial growth (Minimum Inhibition Concentration): +++
100 ppm (mg/L)
  Bacterial growth (Minimum Inhibition Concentration): +++
1000 ppm (mg/L)
  Bacterial growth (Minimum Inhibition Concentration): +++
10000 ppm (mg/L)
  Bacterial growth (Minimum Inhibition Concentration): +++
100000 ppm (mg/L)
  Bacterial growth (Minimum Inhibition Concentration): +++
1000000 ppm (mg/L)
  Bacterial growth (Minimum Inhibition Concentration): −
